Test results taken from patent US11053204B2, “Pyrimidinyloxy benzene derivatives as herbicides” (FMC Corporation, priority 2015, dated 2021).

Assays:
Type in all cases: in vivo
[1] = system: wheat (Triticum aestivum); assay: Test A postemergence, visual injury rating; conditions: 0 to 100 scale, 0 is no effect, 100 is complete control, approximately 10 days
Method in brief: (§1)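 Scoring: eye-based comparison with untreated controls, 0 for no effect through 100 for complete control, at about day 10. Treatments: directed soil spray preemergence; foliar spray postemergence on 2–10 cm plants at the one- to two-leaf stage. Medium: loam soil with sand.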

kochia (Kochia scoparia) = assay: Test A postemergence, visual injury rating; conditions: 0 to 100 scale, 0 is no effect, 100 is complete control, approximately 10 days
Method in brief: as §1

[2] = system: giant foxtail (Setaria faberii); assay: Test A postemergence, visual injury rating; conditions: 0 is no effect, 100 is complete control
Method in brief: as §1

corn (Zea mays) = assay: Test A postemergence, visual injury rating; conditions: 0 is no effect, 100 is complete control
Method in brief: as §1

[3] = system: galium (catchweed bedstraw, Galium aparine); assay: Test A postemergence, visual injury rating; conditions: 0 is no effect, 100 is complete control
Method in brief: as §1

[4] = system: ragweed (common ragweed, Ambrosia elatior); assay: Test A postemergence, visual injury rating; conditions: 0 to 100 scale, 0 is no effect, 100 is complete control, approximately 10 days
Method in brief: as §1

[5] = system: barnyardgrass (Echinochloa crus-galli); assay: Test A postemergence, visual injury rating; conditions: 0 is no effect, 100 is complete control
Method in brief: as §1

[6] = system: Italian ryegrass (Lolium multiflorum); assay: Test A postemergence, visual injury rating; conditions: 0 to 100 scale, 0 is no effect, 100 is complete control, approximately 10 days
Method in brief: as §1

[7] = system: pigweed (Amaranthus retroflexus); assay: Test A postemergence, visual injury rating; conditions: 0 to 100 scale, 0 is no effect, 100 is complete control, approximately 10 days
Method in brief: as §1

[8] = system: blackgrass (Alopecurus myosuroides); assay: Test A postemergence, visual injury rating; conditions: 0 is no effect, 100 is complete control
Method in brief: as §1

[9] = system: foxtail, giant (giant foxtail, Setaria faberii); assay: Test C postemergence, plant response rating; conditions: for Foxtail, Giant plant response rating: scale 0 to 100 (0 no effect, 100 complete control)
Method in brief: (§2)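 Greenhouse plants rated visually against untreated controls 13–15 d after treatment, scale 0 = no effect to 100 = complete control. Postemergence sprays went onto potted plants 2–18 cm tall (1–4 leaves); preemergence sprays onto soil freshly sown in loam–sand or silt loam, chemicals formulated in non-phytotoxic solvent with surfactant.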

[10] = system: ryegrass, Italian (Italian ryegrass, Lolium multiflorum); assay: Test C postemergence, plant response rating; conditions: for Ryegrass, Italian plant response rating: scale 0 to 100 (0 no effect, 100 complete control)
Method in brief: as §2

[11] = system: velvetleaf (Abutilon theophrasti); assay: Test C postemergence, plant response rating; conditions: for Velvetleaf plant response rating: scale 0 to 100 (0 no effect, 100 complete control)
Method in brief: as §2

[12] = system: lambsquarters (Chenopodium album); assay: Test C postemergence, plant response rating; conditions: for Lambsquarters plant response rating: scale 0 to 100 (0 no effect, 100 complete control)
Method in brief: as §2

[13] = system: oat, wild (wild oat Avena fatua); assay: Test C postemergence, plant response rating; conditions: for Oat, Wild plant response rating: scale 0 to 100 (0 no effect, 100 complete control)
Method in brief: as §2

[14] = system: ragweed (common ragweed, Ambrosia elatior); assay: Test C postemergence, plant response rating; conditions: for Ragweed plant response rating: scale 0 to 100 (0 no effect, 100 complete control)
Method in brief: as §2

soybean (Glycine max) = assay: Test C postemergence, plant response rating; conditions: for Soybean plant response rating: scale 0 to 100 (0 no effect, 100 complete control)
Method in brief: as §2

[15] = system: waterhemp (common waterhemp, Amaranthus rudis); assay: Test C postemergence, plant response rating; conditions: for Waterhemp plant response rating: scale 0 to 100 (0 no effect, 100 complete control)
Method in brief: as §2

[16] = system: chickweed (common chickweed, Stellaria media); assay: Test C postemergence, plant response rating; conditions: for Chickweed plant response rating: scale 0 to 100 (0 no effect, 100 complete control)
Method in brief: as §2

[17] = 31 g ai/ha, 0 to 100 scale, approximately 10 days

## O=C(CCCC(F)(F)F)c1c(Br)cccc1Oc1ncc(Cl)cn1 [Compound 77]
[1]; 31 g ai/ha
  Wheat plant response rating: 0
[1]; 125 g ai/ha
  Wheat plant response rating: 10
Kochia (Kochia scoparia); 31 g ai/ha
  Kochia plant response rating: 100
Kochia (Kochia scoparia); 125 g ai/ha
  Kochia plant response rating: 100
[2]; [17]
  Foxtail, Giant plant response rating: 30
[2]; 125 g ai/ha
  Foxtail, Giant plant response rating (0 to 100 scale): 90
Corn (Zea mays); [17]
  Corn plant response rating: 10
Corn (Zea mays); 125 g ai/ha
  Corn plant response rating (0 to 100 scale): 30
[3]; [17]
  Galium plant response rating: 90
[3]; 125 g ai/ha
  Galium plant response rating (0 to 100 scale): 100
[4]; 31 g ai/ha
  Ragweed plant response rating: 0
[4]; 125 g ai/ha
  Ragweed plant response rating: 0
[5]; [17]
  Barnyardgrass plant response rating: 30
[5]; 125 g ai/ha
  Barnyardgrass plant response rating (0 to 100 scale): 90
[6]; 31 g ai/ha
  Ryegrass, Italian plant response rating: 20
[6]; 125 g ai/ha
  Ryegrass, Italian plant response rating: 60
[7]; 31 g ai/ha
  Pigweed plant response rating: 100
[7]; 125 g ai/ha
  Pigweed plant response rating: 100
[8]; [17]
  Blackgrass plant response rating: 20
[8]; 125 g ai/ha
  Blackgrass plant response rating (0 to 100 scale): 50
[9]; 16 g ai/ha, scale of 0 to 100
  Plant response rating, Foxtail, Giant: 10
[9]; 31 g ai/ha, scale 0 to 100
  Plant response rating, Foxtail, Giant: 20
[9]; 62 g ai/ha
  Foxtail, Giant plant response rating: 25
[9]; 125 g ai/ha
  Foxtail, Giant plant response rating: 70
[10]; 16 g ai/ha, scale of 0 to 100
  Plant response rating, Ryegrass, Italian: 0
[10]; 31 g ai/ha, scale 0 to 100
  Plant response rating, Ryegrass, Italian: 5
[10]; 62 g ai/ha
  Ryegrass, Italian plant response rating: 10
[10]; 125 g ai/ha
  Ryegrass, Italian plant response rating: 10
[11]; 16 g ai/ha, scale of 0 to 100
  Plant response rating, Velvetleaf: 35
[11]; 31 g ai/ha, scale 0 to 100
  Plant response rating, Velvetleaf: 50
[11]; 62 g ai/ha
  Velvetleaf plant response rating: 55
[11]; 125 g ai/ha
  Velvetleaf plant response rating: 65
[12]; 16 g ai/ha, scale of 0 to 100
  Plant response rating, Lambsquarters: 55
[12]; 31 g ai/ha, scale 0 to 100
  Plant response rating, Lambsquarters: 75
[12]; 62 g ai/ha
  Lambsquarters plant response rating: 70
[12]; 125 g ai/ha
  Lambsquarters plant response rating: 90
[13]; 16 g ai/ha, scale of 0 to 100
  Plant response rating, Oat, Wild: 0
[13]; 31 g ai/ha, scale 0 to 100
  Plant response rating, Oat, Wild: 5
[13]; 62 g ai/ha
  Oat, Wild plant response rating: 10
[13]; 125 g ai/ha
  Oat, Wild plant response rating: 15
[14]; 16 g ai/ha, scale of 0 to 100
  Plant response rating, Ragweed: 40
[14]; 31 g ai/ha, scale 0 to 100
  Plant response rating, Ragweed: 40
[14]; 62 g ai/ha
  Ragweed plant response rating: 35
[14]; 125 g ai/ha
  Ragweed plant response rating: 70
Soybean (Glycine max); 16 g ai/ha, scale of 0 to 100
  Plant response rating, Soybean: 25
Soybean (Glycine max); 31 g ai/ha, scale 0 to 100
  Plant response rating, Soybean: 50
Soybean (Glycine max); 62 g ai/ha
  Soybean plant response rating: 70
Soybean (Glycine max); 125 g ai/ha
  Soybean plant response rating: 65
[15]; 16 g ai/ha, scale of 0 to 100
  Plant response rating, Waterhemp: 95
[15]; 31 g ai/ha, scale 0 to 100
  Plant response rating, Waterhemp: 98
[15]; 62 g ai/ha
  Waterhemp plant response rating: 100
[15]; 125 g ai/ha
  Waterhemp plant response rating: 100
[16]; 16 g ai/ha, scale of 0 to 100
  Plant response rating, Chickweed: 80
[16]; 31 g ai/ha, scale 0 to 100
  Plant response rating, Chickweed: 80
[16]; 62 g ai/ha
  Chickweed plant response rating: 100
[16]; 125 g ai/ha
  Chickweed plant response rating: 100
